Experimental data taken from patent publication US10611750B2, “Tetrahydroquinoline compositions as bet bromodomain inhibitors” (FORMA Therapeutics, Inc., priority 2013, dated 2020).

Legend:
[1] = biological target: T1, BRD4 Bromodomain 1 (BRD4 BD1) (Homo sapiens, UniProt O60885); test: AlphaScreen binding assay, BRD4 BD1; conditions: His-tagged BRD4 BD1 50 nM, biotinylated H4 (1-21) K5/8/12/16 tetra-acetylated peptide 50 nM, compounds listed under IC50 range headings
T1 construct: 44-168 and BRD4 BD2
Method: The binding of Example compounds to BRD4 Bromodomain 1 and BRD4 Bromodomain 2 was assessed using 384-well AlphaScreen assay technology. His-epitope tagged BRD4 BD144-168 and BRD4 BD2333-460 were cloned, expressed, and purified to homogeneity. BRD4 BD1 and BRD4 BD2 binding and inhibition was assessed by monitoring the engagement of biotinylated Histone H4 (1-21) K5/8/12/16 tetra-acetylated peptide with the targets using the AlphaScreen technology (PerkinElmer). Specifically, in a 384-well black or white flat bottom plate, BRD4 BD1 (50 nM final) or BRD4 BD2 (100 nM final) was combined with peptide (50 nM final for BD1 or 100 nM final for BD2) in 50 mM HEPES (pH 7.3), 100 mM NaCl, 0.1% (w/v) BSA, and 0.01% (w/v) Triton X-100 either in the presence of DMSO (final 1.25% DMSO) or compound dilution series in DMSO. Alpha streptavidin donor beads and Nickel-chelate acceptor beads were added to a final concentration of 10 μg/ml each. After a minimum of 1 hour equilibration, plates were read on a BMG PHERAstar FS multi-label reader (BMG LabTech). The half maximal inhibitory concentration (IC50) values were calculated using IDBS Activity Base software with a four parameter logistic curve fit by the equation y=A+((B−A)/(1+((C/x)^D))), wherein A denotes the bottom plateau of the curve, B denotes the top plateau of the curve, C denotes the x value at the middle of the curve, D denotes the slope factor, x denotes the original known x values, and y denotes the original known y values. Data was fitted using the Levenburg Marquardt algorithm.

[2] = system: acute myelocytic leukemia (AML) cell line MV4-11; test: Oncology cell growth assay (3-day proliferation, CellTiter-Glo); format: cell-based; conditions: Homo sapiens, MV4-11, 72 h, MV4-11 cells, 3000 cells/well, compounds listed under IC50 range headings, read-out: MV411 IC50 (gIC50, inhibition of proliferation)
Method: The impact of Example compounds on cancer cell proliferation was determined using the acute myelocytic leukemia (AML) cell line MV4-11 (ATCC) in a 3-day proliferation assay. MV4-11 cells were maintained in RPMI 1640 media supplemented with 10% FBS at 37° C. and an atmosphere of 5% CO2. For compound testing, compound dilutions series were prepared in DMSO via a 3-fold serial dilution from 2 mM to 0.001 mM in 384-well white flat bottom plates. The final compound concentrations in the wells were 10, 3.3, 1.1, 0.37, 0.12, 0.041, 0.013 and 0.0045 μM. MV4-11 cells were plated at a density of 3000 cells/well in final volume of 50 μl culture media and incubated for 72 hours. […] Luminescent signal from the CellTiter-Glo assay was read on an EnVision multilabel plate reader (PerkinElmer). Values for the concentration that inhibited cell growth by 50% (gIC50) between the DMSO control and background control (no cells) were determined using IDBS Activity Base software with a four parameter logistic curve fit by the equation y=A+((B−A)/(1+((C/x)^D))), wherein A denotes the bottom plateau of the curve, B denotes the top plateau of the curve, C denotes the x value at the middle of the curve, D denotes the slope factor, x denotes the original known x values, and y denotes the original known y values. Data was fitted using the Levenburg Marquardt algorithm.

SMILES	IC50 [1]	IC50 [2]
COC(=O)N1c2ccc(-c3cnn(C4CC5CNCC5C4)c3)c(Oc3ccc(F)cc3)c2CC[C@@H]1C (stereo partly drawn) [I-186, (2S)-methyl 5-(4-fluorophenoxy)-2-methyl-6-(1-(octahydrocyclopenta[c]pyrrol-5-yl)-1H-pyrazol-4-yl)-3,4-dihydroquinoline-1(2H)-carboxylate]	100 to 1000 nM	< 500 nM
C[C@H]1CCc2c(ccc(-c3c[nH]nn3)c2Oc2ccccc2)N1C(=O)C1CC1 [I-187, (S)-cyclopropyl(2-methyl-5-phenoxy-6-(1H-1,2,3-triazol-4-yl)-3,4-dihydroquinolin-1(2H)-yl)methanone]	100 to 1000 nM	< 500 nM
COC(=O)N1c2ccc(-c3cnn(C4CNC4)c3)c(Oc3ccc(F)c(F)c3)c2CC[C@@H]1C [I-192, (S)-methyl 6-(1-(azetidin-3-yl)-1H-pyrazol-4-yl)-5-(3,4-difluorophenoxy)-2-methyl-3,4-dihydroquinoline-1(2H)-carboxylate]	100 to 1000 nM	< 500 nM
COC(=O)N1c2ccc(-c3cnn(C4CNC4)c3)c(Oc3ccccc3)c2CC[C@@H]1C [I-193, (S)-methyl 6-(1-(azetidin-3-yl)-1H-pyrazol-4-yl)-2-methyl-5-phenoxy-3,4-dihydroquinoline-1(2H)-carboxylate]	100 to 1000 nM	< 500 nM
COc1ccccc1Oc1c(-c2cnn(C3CCNCC3)c2)ccc2c1CC[C@H](C)N2C(=O)C1CC1 [I-194, (S)-cyclopropyl(5-(2-methoxyphenoxy)-2-methyl-6-(1-(piperidin-4-yl)-1H-pyrazol-4-yl)-3,4-dihydroquinolin-1(2H)-yl)methanone]	100 to 1000 nM	< 500 nM
COc1cccc(Oc2c(-c3cnn(C4CCNCC4)c3)ccc3c2CC[C@H](C)N3C(=O)C2CC2)c1 [I-195, (S)-cyclopropyl(5-(3-methoxyphenoxy)-2-methyl-6-(1-(piperidin-4-yl)-1H-pyrazol-4-yl)-3,4-dihydroquinolin-1(2H)-yl)methanone]	100 to 1000 nM	< 500 nM
COc1ccc(Oc2c(-c3cnn(C4CCNCC4)c3)ccc3c2CC[C@H](C)N3C(=O)C2CC2)cc1 [I-196, (S)-cyclopropyl(5-(4-methoxyphenoxy)-2-methyl-6-(1-(piperidin-4-yl)-1H-pyrazol-4-yl)-3,4-dihydroquinolin-1(2H)-yl)methanone]	100 to 1000 nM	< 500 nM
COC(=O)N1c2ccc(-c3cnn(C4CCNCC4)c3)c(Oc3ccccc3OC)c2CC[C@@H]1C [I-197, (S)-methyl 5-(2-methoxyphenoxy)-2-methyl-6-(1-(piperidin-4-yl)-1H-pyrazol-4-yl)-3,4-dihydroquinoline-1(2H)-carboxylate]	100 to 1000 nM	< 500 nM
COC(=O)N1c2ccc(-c3cnn(C4CCNCC4)c3)c(Oc3cccc(OC)c3)c2CC[C@@H]1C [I-198, (S)-methyl 5-(3-methoxyphenoxy)-2-methyl-6-(1-(piperidin-4-yl)-1H-pyrazol-4-yl)-3,4-dihydroquinoline-1(2H)-carboxylate]	100 to 1000 nM	< 500 nM
COC(=O)N1c2ccc(-c3cnn(C4CCNCC4)c3)c(Oc3ccc(OC)cc3)c2CC[C@@H]1C [I-199, (S)-methyl 5-(4-methoxyphenoxy)-2-methyl-6-(1-(piperidin-4-yl)-1H-pyrazol-4-yl)-3,4-dihydroquinoline-1(2H)-carboxylate]	100 to 1000 nM	< 500 nM
C[C@H]1CCc2c(ccc(-c3cnn(C4CCNCC4)c3)c2Oc2cccc(C#N)c2)N1C(=O)C1CC1 [I-202, (S)-3-(1-(cyclopropanecarbonyl)-2-methyl-6-(1-(piperidin-4-yl)-1H-pyrazol-4-yl)-1,2,3,4-tetrahydroquinolin-5-yloxy)benzonitrile]	100 to 1000 nM	< 500 nM
CC(=O)N1c2ccc(-c3cnn(C4CCNCC4)c3)c(Oc3ccccn3)c2CC[C@@H]1C [I-203, (S)-1-(2-methyl-6-(1-(piperidin-4-yl)-1H-pyrazol-4-yl)-5-(pyridin-2-yloxy)-3,4-dihydroquinolin-1(2H)-yl)ethanone]	100 to 1000 nM	< 500 nM
C[C@H]1CCc2c(Oc3ccccc3)c(-c3cnn(C4CCNCC4)c3)cc(F)c2N1C(=O)C1CC1 [I-204, (S)-cyclopropyl(8-fluoro-2-methyl-5-phenoxy-6-(1-(piperidin-4-yl)-1H-pyrazol-4-yl)-3,4-dihydroquinolin-1 (2H)-yl)methanone]	100 to 1000 nM	< 500 nM
COC(=O)N1c2c(F)cc(-c3cnn(C4CCNCC4)c3)c(Oc3ccccc3)c2CC[C@@H]1C [I-205, (S)-methyl 8-fluoro-2-methyl-5-phenoxy-6-(1-(piperidin-4-yl)-1H-pyrazol-4-yl)-3,4-dihydroquinoline-1(2H)-carboxylate]	100 to 1000 nM	< 500 nM
CC(=O)N1c2c(F)cc(-c3cnn(C4CCNCC4)c3)c(Oc3ccccc3)c2CC[C@@H]1C [I-206, (S)-1-(8-fluoro-2-methyl-5-phenoxy-6-(1-(piperidin-4-yl)-1H-pyrazol-4-yl)-3,4-dihydroquinolin-1 (2H)-yl)ethanone]	100 to 1000 nM	< 500 nM
COc1cccc(Oc2c(-c3cnn(C4CCNCC4)c3)cc(F)c3c2CC[C@H](C)N3C(=O)C2CC2)c1 [I-207, (S)-cyclopropyl(8-fluoro-5-(3-methoxyphenoxy)-2-methyl-6-(1-(piperidin-4-yl)-1H-pyrazol-4-yl)-3,4-dihydroquinolin-1(2H)-yl)methanone]	100 to 1000 nM	< 500 nM
C[C@H]1CCc2c(ccc(-c3cn(C)nn3)c2Oc2ccccc2)N1C(=O)C1CC1 [I-219, (S)-cyclopropyl(2-methyl-6-(1-methyl-1H-1,2,3-triazol-4-yl)-5-phenoxy-3,4-dihydroquinolin-1(2H)-yl)methanone]	100 to 1000 nM	< 500 nM
Cc1nnc(-c2ccc3c(c2Oc2ccccc2)CC[C@H](C)N3C(=O)C2CC2)s1 [I-220, (S)-cyclopropyl(2-methyl-6-(5-methyl-1,3,4-thiadiazol-2-yl)-5-phenoxy-3,4-dihydroquinolin-1(2H)-yl)methanone]	1000 to 10000 nM	< 500 nM
C[C@H]1CCc2c(ccc(-c3cn(C)cn3)c2Oc2ccccc2)N1C(=O)C1CC1 [I-221, (S)-cyclopropyl(2-methyl-6-(1-methyl-1H-imidazol-4-yl)-5-phenoxy-3,4-dihydroquinolin-1(2H)-yl)methanone]	100 to 1000 nM	< 500 nM
COC(=O)N1c2ccc(-c3cnn(C4CCCS(=O)(=O)C4)c3)c(Oc3ccc(F)cc3)c2CC[C@@H]1C (stereo partly drawn) [I-222, Methyl (2S)-6-(1-(1,1-dioxidotetrahydro-2H-thiopyran-3-yl)-1H-pyrazol-4-yl)-5-(4-fluorophenoxy)-2-methyl-3,4-dihydroquinoline-1 (2H)-carboxylate]	100 to 1000 nM	< 500 nM
COC(=O)N1c2ccc(-c3cnn(C4CS(=O)(=O)C4)c3)c(Oc3ccc(F)cc3)c2CC[C@@H]1C [I-223, methyl (S)-6-(1-(1,1-dioxidothietan-3-yl)-1H-pyrazol-4-yl)-5-(4-fluorophenoxy)-2-methyl-3,4-dihydroquinoline-1(2H)-carboxylate]	100 to 1000 nM	< 500 nM
C[C@H]1CCc2c(ccc(-c3cnn(C4CS(=O)(=O)C4)c3)c2Oc2ccc(F)cc2)N1C(=O)C1CC1 [I-229, 3-[4-[(2S)-1-cyclopropanecarbonyl-5-(4-fluorophenoxy)-2-methyl-1,2,3,4-tetrahydroquinolin-6-yl]-1H-pyrazol-1-yl]-1λ^6-thietane-1,1-dione]	100 to 1000 nM	< 500 nM
C[C@H]1CCc2c(ccc(-c3cnn(C4CS(=O)(=O)C4)c3)c2Oc2ccccc2)N1C(=O)C1CC1 [I-230, 3-[4-[(2S)-1-cyclopropanecarbonyl-2-methyl-5-phenoxy-1,2,3,4-tetrahydroquinolin-6-yl]-1H-pyrazol-1-yl]-1λ^6-thietane-1,1-dione]	100 to 1000 nM	< 500 nM
